Here are results for 1 molecule from US7531520B2, “Drug and food or drink for improving pancreatic functions” (Morinaga Milk Industry Co., Ltd., priority 2005, dated 2009).

In assay [1] the test system is db/db mice.
Method: This test was performed in order to evaluate the pancreatic endocrine gland cell function (insulin production ability) protecting action of 3-O-β-D-glucopyranosyl-4-methyl-ergost-7-en-3-ol by using db/db mice known as a model animal of pancreatic hypofunction or pancreatic tissue dysfunction.
In this test, 6-week old male db/db mice (purchased from Clea Japan, Inc.) were used. These mice were divided into groups, each consisting of 7 animals. Each test sample was dissolved in DMSO, and the concentration was adjusted to 0.1 or 1 μg/mL with physiological saline. The final DMSO concentration was adjusted to 0.2%. The model mice were orally administered with 1 mL of the test sample once a day everyday for 42 days with a sonde. The serum insulin level was measured on the 43rd day of the continuous administration by using Lbis insulin mouse ELISA kit (Shibayagi Co., Ltd).
In assay [2] the test system is db/db mice. As to the kind of experiment: Hyperglycemia improving effect in type-II diabetes model mice (Reference Example 1). The assay is classed as in vivo. The note with it: male db/db mice, oral 1 mL of 15 μg/mL once a day. The method, then: The final DMSO concentration was adjusted to 0.2%. […] Fasting blood glucose levels and random blood glucose levels were measured over time using Antisense II (Bayer-Sankyo Co., Ltd.). The fasting blood glucose levels were measured after 15 hours of fasting.
Changes over time in random blood glucose levels and fasting blood glucose levels during the test sample administration period are shown in FIGS. 3 and 4.

Assay [3] deals with db/db mice. The assay can be described thus: Pancreatic tissue protecting action, Langerhans islets in pancreatic sections (Test Example 2). The assay is classed as in vivo. The method, then:
The final DMSO concentration was adjusted to 0.2%. […] On the 43rd day of the continuous administration, the pancreas was extracted, divided into three portions of upstream, midstream and downstream from the duodenum side, and fixed with a formalin solution, and then paraffin blocks were prepared in a conventional manner. Section slides were prepared from the paraffin blocks, and subjected to hematoxylin-eosin staining. The numbers of Langerhans islets existing on the sections of the 3 position of the pancreas, and area of Langerhans islet having the maximum area on each section were measured by using an ocular micrometer on a microscope (“ECLIPSE E600”, NIKON CORP.).

[4] abbreviates: oral 1 μg once a day for 42 days, pancreatic sections.

Each structure is given as a SMILES string. Where two headings read alike, the source gives them in different places.

For the molecule `CC1C(O[C@@H]2O[C@H](CO)[C@@H](O)[C@H](O)[C@H]2O)CC[C@@]2(C)C1CC=C1[C@@H]3CC[C@H]([C@H](C)CC[C@H](C)C(C)C)[C@@]3(C)CC[C@@H]12` (stereo partly drawn) [Test sample, 3-O-β-D-glucopyranosyl-4-methyl-ergost-7-en-3-ol], the “Effect on serum insulin level (pancreatic function protecting effect)” value in assay [1] (0.1 μg/animal, 43rd day) was “any significant effect was not observed”. Besides, in assay [1] (1 μg/animal, 43rd day), the “Serum insulin level relative to that observed in the negative test” value turned out to be 216%. The “Serum insulin levels on 43rd day of administration” value in assay [1] (oral 0.1 μg/animal once a day for 42 days) is reported as 2.24 ± 0.66 ng/mL. The “Serum insulin levels on 43rd day of administration” value in assay [1] (oral 1 μg/animal once a day for 42 days) is recorded as 4.29 ± 0.71 ng/mL. In addition, in assay [2] (FIG. 3, versus negative sample), the “Changes over time in random blood glucose levels” value is “effect of suppressing the increases in blood glucose levels was clearly observed”. Besides, the “Changes over time in fasting blood glucose levels” value in assay [2] (after 15 hours of fasting, FIG. 4, versus negative sample) is reported as “effect of suppressing the increases in blood glucose levels was clearly observed”. Moreover, in assay [3] (1 μg, 43rd day), the “Maximum areas of Langerhans islets relative to that observed in the negative test” value stood at 3.6 times and the “Number of Langerhans islets relative to negative sample-administered mice” value was 188%. In assay [3] (setting [4]), the “Maximum area of Langerhans islets on 43rd day of administration” value is listed as 160.0 ± 116.7 × 10^3 (μm^2) and the “The numbers of Langerhans islets in sections on 43rd day of administration” value is 75.7 ± 24.7 piece.
